One assay deals with Mu-type opioid receptor (Homo sapiens, UniProt P35372). The experiment in a line: biochemical. The format is functional.
The target in assay [1] is Gamma-aminobutyric acid receptor subunit alpha-1/alpha-2/beta-2/gamma-2 (Homo sapiens, UniProt P14867+P18507+P47869+P47870). The class given is functional, cell-based.
A further assay concerns the target T1, Glucocorticoid receptor (Homo sapiens, UniProt P04150).
T1 sequence (P04150 whole entry): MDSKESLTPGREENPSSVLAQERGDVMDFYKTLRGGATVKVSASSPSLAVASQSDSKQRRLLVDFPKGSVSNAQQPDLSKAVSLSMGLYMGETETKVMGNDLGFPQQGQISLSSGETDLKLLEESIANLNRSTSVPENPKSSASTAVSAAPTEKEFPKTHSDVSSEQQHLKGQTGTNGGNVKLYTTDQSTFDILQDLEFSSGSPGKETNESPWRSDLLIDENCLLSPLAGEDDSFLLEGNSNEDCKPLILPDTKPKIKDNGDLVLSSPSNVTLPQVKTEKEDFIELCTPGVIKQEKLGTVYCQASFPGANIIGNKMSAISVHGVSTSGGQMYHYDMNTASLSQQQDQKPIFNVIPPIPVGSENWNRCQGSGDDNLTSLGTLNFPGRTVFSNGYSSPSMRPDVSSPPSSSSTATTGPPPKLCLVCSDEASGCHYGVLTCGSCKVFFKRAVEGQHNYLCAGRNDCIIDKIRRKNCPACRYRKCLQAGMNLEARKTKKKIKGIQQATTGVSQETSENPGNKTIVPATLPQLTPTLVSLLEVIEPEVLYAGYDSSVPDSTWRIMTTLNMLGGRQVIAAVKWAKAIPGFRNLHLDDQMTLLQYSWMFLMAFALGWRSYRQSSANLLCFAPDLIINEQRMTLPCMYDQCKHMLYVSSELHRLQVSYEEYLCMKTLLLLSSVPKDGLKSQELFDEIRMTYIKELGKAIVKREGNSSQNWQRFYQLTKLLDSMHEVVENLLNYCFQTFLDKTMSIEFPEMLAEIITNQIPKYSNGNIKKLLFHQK

Another assay addresses T2, B1 bradykinin receptor (Homo sapiens, UniProt P46663).
T2 sequence (P46663 whole entry): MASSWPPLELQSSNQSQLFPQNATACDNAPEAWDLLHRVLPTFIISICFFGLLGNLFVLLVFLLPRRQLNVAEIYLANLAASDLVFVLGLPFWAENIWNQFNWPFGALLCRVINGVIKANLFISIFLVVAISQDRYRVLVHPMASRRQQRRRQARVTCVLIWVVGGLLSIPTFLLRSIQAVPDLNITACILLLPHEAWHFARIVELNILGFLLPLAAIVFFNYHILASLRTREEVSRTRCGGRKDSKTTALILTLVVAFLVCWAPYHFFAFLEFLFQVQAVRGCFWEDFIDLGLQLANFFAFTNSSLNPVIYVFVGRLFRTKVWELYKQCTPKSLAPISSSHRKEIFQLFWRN

The target in assay [2] is T3, 5-hydroxytryptamine receptor 1A (Homo sapiens, UniProt P08908).
T3 sequence (P08908 whole entry): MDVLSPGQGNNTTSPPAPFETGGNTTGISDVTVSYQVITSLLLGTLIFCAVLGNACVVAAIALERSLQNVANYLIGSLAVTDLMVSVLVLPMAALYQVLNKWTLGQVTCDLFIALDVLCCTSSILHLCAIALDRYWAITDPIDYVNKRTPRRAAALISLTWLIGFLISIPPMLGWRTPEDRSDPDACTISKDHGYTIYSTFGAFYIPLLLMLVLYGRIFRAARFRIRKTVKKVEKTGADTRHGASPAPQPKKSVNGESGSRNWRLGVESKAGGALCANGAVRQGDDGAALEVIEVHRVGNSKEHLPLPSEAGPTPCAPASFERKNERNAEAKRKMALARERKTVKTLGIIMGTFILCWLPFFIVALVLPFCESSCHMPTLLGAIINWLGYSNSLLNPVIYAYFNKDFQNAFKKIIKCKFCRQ

In assay [3] the target is Beta-3 adrenergic receptor (Homo sapiens, UniProt P13945).
A further assay concerns the target T4, Progesterone receptor (Homo sapiens, UniProt P06401).
T4 sequence (P06401 whole entry): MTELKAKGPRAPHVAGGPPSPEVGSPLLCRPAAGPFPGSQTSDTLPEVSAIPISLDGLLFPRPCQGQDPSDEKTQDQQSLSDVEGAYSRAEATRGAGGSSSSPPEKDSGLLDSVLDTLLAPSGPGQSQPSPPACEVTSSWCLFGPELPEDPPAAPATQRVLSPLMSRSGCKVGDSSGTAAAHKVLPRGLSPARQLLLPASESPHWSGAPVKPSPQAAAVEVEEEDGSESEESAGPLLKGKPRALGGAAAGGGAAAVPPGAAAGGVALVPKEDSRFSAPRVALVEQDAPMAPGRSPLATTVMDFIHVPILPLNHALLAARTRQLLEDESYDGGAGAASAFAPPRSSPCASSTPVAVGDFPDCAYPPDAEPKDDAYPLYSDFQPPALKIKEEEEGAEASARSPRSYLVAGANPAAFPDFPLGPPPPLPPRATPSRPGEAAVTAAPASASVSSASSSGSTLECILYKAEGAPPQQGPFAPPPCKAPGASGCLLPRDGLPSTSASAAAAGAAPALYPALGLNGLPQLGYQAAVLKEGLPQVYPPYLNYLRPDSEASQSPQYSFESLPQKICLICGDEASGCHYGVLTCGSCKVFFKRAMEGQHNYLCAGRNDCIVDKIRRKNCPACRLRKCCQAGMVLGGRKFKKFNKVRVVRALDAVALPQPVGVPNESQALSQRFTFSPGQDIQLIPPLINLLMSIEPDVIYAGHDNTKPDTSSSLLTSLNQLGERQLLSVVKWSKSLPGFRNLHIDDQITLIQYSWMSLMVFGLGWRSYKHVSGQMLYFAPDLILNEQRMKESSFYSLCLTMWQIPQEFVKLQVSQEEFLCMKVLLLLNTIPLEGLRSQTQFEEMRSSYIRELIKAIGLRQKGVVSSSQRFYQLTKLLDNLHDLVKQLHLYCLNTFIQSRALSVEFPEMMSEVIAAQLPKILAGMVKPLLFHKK

This note sets out measurements from ChEMBL document CHEMBL5291721, “A preclinical secondary pharmacology resource illuminates target-adverse drug reaction associations of marketed drugs” (Nat Commun, 2023).

A value given as a limit tells only on which side of the number the result lay.
Note: assay procedure not described here.

Chain of Gamma-aminobutyric acid receptor subunit alpha-1/alpha-2/beta-2/gamma-2 (P14867 whole entry): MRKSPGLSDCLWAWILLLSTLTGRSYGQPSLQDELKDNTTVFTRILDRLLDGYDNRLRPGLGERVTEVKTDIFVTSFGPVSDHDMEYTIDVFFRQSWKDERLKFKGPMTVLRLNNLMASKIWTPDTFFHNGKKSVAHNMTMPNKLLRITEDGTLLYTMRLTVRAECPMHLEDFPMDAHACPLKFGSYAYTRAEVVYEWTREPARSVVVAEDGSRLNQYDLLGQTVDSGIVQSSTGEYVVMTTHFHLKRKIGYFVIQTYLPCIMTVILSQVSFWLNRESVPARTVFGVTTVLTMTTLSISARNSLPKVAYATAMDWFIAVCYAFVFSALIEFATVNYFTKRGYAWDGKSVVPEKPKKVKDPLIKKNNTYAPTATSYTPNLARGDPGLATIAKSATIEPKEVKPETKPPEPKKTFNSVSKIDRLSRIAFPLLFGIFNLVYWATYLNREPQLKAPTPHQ
Chain of Gamma-aminobutyric acid receptor subunit alpha-1/alpha-2/beta-2/gamma-2 (P47870 whole entry): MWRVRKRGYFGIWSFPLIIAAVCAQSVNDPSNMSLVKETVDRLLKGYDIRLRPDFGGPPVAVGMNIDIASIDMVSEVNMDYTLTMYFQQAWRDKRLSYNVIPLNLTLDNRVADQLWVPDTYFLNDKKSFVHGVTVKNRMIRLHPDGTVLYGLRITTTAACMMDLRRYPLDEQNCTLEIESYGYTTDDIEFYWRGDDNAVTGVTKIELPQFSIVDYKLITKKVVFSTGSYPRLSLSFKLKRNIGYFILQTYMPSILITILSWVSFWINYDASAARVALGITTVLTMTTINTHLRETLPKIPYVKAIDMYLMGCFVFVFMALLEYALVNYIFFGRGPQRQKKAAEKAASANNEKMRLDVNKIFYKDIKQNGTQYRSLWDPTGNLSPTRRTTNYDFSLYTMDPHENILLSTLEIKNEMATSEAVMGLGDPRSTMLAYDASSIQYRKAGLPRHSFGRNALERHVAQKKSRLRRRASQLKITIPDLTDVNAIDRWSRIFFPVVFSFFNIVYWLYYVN
Chain of Gamma-aminobutyric acid receptor subunit alpha-1/alpha-2/beta-2/gamma-2 (P18507 whole entry): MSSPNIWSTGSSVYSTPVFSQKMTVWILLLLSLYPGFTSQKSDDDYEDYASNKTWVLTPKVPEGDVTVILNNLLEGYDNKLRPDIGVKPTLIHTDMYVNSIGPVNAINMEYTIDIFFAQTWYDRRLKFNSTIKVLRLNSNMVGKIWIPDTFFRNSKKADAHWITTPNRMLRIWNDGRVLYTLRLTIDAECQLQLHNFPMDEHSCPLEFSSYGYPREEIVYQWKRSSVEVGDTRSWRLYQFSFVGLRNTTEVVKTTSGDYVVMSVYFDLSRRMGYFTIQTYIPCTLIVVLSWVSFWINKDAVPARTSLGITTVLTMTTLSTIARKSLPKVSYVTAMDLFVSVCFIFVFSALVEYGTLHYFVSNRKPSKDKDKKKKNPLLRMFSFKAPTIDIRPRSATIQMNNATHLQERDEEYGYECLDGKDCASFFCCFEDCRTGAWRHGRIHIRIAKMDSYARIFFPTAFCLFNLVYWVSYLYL
Chain of Gamma-aminobutyric acid receptor subunit alpha-1/alpha-2/beta-2/gamma-2 (P47869 whole entry): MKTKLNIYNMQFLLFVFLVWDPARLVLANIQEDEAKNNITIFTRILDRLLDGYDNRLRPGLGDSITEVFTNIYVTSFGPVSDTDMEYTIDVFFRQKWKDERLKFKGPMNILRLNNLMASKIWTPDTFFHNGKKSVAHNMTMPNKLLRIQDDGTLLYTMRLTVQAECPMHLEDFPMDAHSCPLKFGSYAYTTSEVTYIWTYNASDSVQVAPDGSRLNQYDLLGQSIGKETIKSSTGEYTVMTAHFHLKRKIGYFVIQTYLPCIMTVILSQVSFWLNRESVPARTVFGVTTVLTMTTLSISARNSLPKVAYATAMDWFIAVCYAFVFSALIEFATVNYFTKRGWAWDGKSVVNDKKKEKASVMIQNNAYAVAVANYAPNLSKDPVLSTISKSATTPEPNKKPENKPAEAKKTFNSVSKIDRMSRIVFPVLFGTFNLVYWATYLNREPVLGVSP
Chain of Beta-3 adrenergic receptor (P13945 whole entry): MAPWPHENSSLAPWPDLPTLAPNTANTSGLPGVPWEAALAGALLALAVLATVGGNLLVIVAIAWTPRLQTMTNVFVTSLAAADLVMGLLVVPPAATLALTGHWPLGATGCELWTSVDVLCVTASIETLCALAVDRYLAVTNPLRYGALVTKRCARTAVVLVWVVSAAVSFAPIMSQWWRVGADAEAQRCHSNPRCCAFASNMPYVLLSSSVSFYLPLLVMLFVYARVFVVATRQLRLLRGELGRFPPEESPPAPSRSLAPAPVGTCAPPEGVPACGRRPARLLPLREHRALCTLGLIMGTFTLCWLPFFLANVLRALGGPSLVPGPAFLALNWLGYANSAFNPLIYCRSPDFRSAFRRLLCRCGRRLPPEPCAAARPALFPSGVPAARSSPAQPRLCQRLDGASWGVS
Chain of Mu-type opioid receptor (P35372 whole entry): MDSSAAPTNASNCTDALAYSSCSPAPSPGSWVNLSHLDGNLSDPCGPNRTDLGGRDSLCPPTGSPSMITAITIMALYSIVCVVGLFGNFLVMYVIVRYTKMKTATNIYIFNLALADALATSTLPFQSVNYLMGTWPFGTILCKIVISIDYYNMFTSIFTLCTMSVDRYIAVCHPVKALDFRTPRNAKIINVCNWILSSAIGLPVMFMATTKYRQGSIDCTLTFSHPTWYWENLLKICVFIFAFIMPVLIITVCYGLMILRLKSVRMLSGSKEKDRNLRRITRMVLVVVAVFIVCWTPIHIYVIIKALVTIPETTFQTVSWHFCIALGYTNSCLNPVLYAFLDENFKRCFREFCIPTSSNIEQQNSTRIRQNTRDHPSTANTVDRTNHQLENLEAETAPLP

Turning to `C[C@@H](NCCCc1cccc(C(F)(F)F)c1)c1cccc2ccccc12`, the values for the AC50 (on Mu-type opioid receptor; in assay [1]; at Glucocorticoid receptor) were 1.9 µM, more than 30 µM and more than 30 µM, respectively.
Regarding `CCCN(CCC)C(=O)Cc1c(-c2ccc(Cl)cc2)nc2ccc(Cl)cn12` [ALPIDEM], the AC50 – broadly, the concentration giving half of the maximal activity seen – at Mu-type opioid receptor is more than 30 µM; at B1 bradykinin receptor, more than 10 µM; in assay [1], more than 10 µM; in assay [2] it was more than 10 µM.
For the compound `C[C@@H](Oc1cc(-c2cnn(C3CCNCC3)c2)cnc1N)c1c(Cl)ccc(F)c1Cl` [CRIZOTINIB], the AC50 was 17 µM in assay [1], 14.2 µM in assay [3] and more than 10 µM in assay [2].
With `CN(CC1(C)CCCO1)S(=O)(=O)c1ccc(Cl)c(S(N)(=O)=O)c1` (configuration not stated) [MEFRUSIDE], the AC50 (on Mu-type opioid receptor; in assay [1]) was more than 30 µM in each case.
As for `CN(C)CCc1c[nH]c2ccc(Cn3cncn3)cc12` [RIZATRIPTAN], the half-maximal activity concentration (AC50) (on Mu-type opioid receptor; at B1 bradykinin receptor; on Progesterone receptor; in assay [1]; in assay [3]) was more than 30 µM each time.
For `CC(C)c1nc(N(C)S(C)(=O)=O)nc(-c2ccc(F)cc2)c1/C=C/[C@@H](O)C[C@@H](O)CC(=O)O` [ROSUVASTATIN], the AC50 (on Mu-type opioid receptor; in assay [1]; at Glucocorticoid receptor) was more than 30 µM each time.
On to `N[C@@H](CC(=O)N1CCn2c(nnc2C(F)(F)F)C1)Cc1cc(F)c(F)cc1F` [SITAGLIPTIN], for which the AC50 on B1 bradykinin receptor is more than 10 µM; in assay [1], more than 30 µM; in assay [2] it was more than 10 µM.
Consider `OC[C@H]1O[C@@](CO)(O[C@H]2O[C@H](CO)[C@@H](O)[C@H](O)[C@H]2O)[C@@H](O)[C@@H]1O` [SUCROSE], for which the AC50 (at Mu-type opioid receptor; in assay [1]) was more than 30 µM each time.
Turning to `C=CC[C@@H]1/C=C(\C)C[C@H](C)C[C@H](OC)[C@H]2O[C@@](O)(C(=O)C(=O)N3CCCC[C@H]3C(=O)O[C@H](/C(C)=C/[C@@H]3CC[C@@H](O)[C@H](OC)C3)[C@H](C)[C@@H](O)CC1=O)[C@H](C)C[C@@H]2OC` [TACROLIMUS ANHYDROUS], the AC50 on Mu-type opioid receptor is more than 30 µM; on B1 bradykinin receptor it was more than 30 µM; on Progesterone receptor it was more than 30 µM; in assay [1] it was more than 30 µM; in assay [3], 12.2 µM; on Glucocorticoid receptor, more than 30 µM. The AC50 in assay [2] was more than 10 µM.
